Earlier results in patent publication US20030073826A1 (priority 2001, published 2003).

System: bacteria
Conditions: U.S. Pat. No. 3,496,163, Example 2

In the case of CCC[C@@H]1C[C@@H](C(=O)NC(C(C)Cl)C2OC(SC)C(O)C(O)C2O)N(C)C1 (stereo partly shown) [clindamycin free base], the “antibacterial spectrum compared with the hydrochloride salt of clindamycin” value is given as “same scope and magnitude”.
